Measurements reported in patent US7741281B2, “Hepatitis C virus inhibitors” (Bristol-Myers Squibb Company, priority 2005, dated 2010).
Like-named read-outs stand apart in the source and are kept apart here.

How the values were obtained:
[1] = target: T1, HCV NS3/4A protease complex, H77 strain (Hepatitis C virus genotype 1a, UniProt P27958, C1454S/C1711G); assay: FRET peptide assay to monitor HCV NS3/4A proteolytic activity (H77 strain); type: biochemical, HCV genotype 1a
T1 construct: recombinant HCV NS3/4A protease complex (amino acids 1027 to 1711) for these strains; His tag (inferred from pET21b vector and Ni-NTA purification); made in house; host or cells: Escherichia coli BL21 (DE3), pET21b
Source text: (§1) HCV NS3 protease complexes, derived from the BMS strain, H77 strain or J4L6S strain, were generated, as described below. These purified recombinant proteins were generated for use in a homogeneous assay (see below) to provide an indication of how effective compounds of the present disclosure would be in inhibiting HCV NS3 proteolytic activity.
Serum from an HCV-infected patient was obtained from Dr. T. Wright, San Francisco Hospital. An engineered full-length cDNA (compliment deoxyribonucleic acid) template of the HCV genome (BMS strain) was constructed from DNA fragments obtained by reverse transcription-PCR (RT-PCR) of serum RNA (ribonucleic acid) and using primers selected on the basis of homology between other genotype 1a strains. From the determination of the entire genome sequence, a genotype 1a was assigned to the HCV isolate according to the classification of Simmonds et al. (See P Simmonds, K A Rose, S Graham, S W Chan, F McOmish, B C Dow, E A Follett, P L Yap and H Marsden, J. Clin. Microbiol., 31(6), 1493-1503 (1993)). […]

[2] = target: T2, porcine pancreatic elastase (PPE) (Sus scrofa, UniProt P00772); assay: Specificity assay, porcine pancreatic elastase (pNA substrate); type: biochemical; details: read-out: PPE activity in the specificity assays (IC50)
T2 construct: purchased Sigma or EMDbiosciences
Description: The specificities of compounds of the present disclosure were determined against a variety of serine proteases: human neutrophil elastase (HNE), porcine pancreatic elastase (PPE) and human pancreatic chymotrypsin and one cysteine protease: human liver cathepsin B. In all cases, a 96-well plate format protocol using colorimetric p-nitroaniline (pNA) substrate or fluorometric Amino-Methyl-Coumarin (AMC) substrate, specific for each enzyme was used as described previously (PCT Patent Application No. WO 00/09543) with some modifications. All enzymes were purchased from Sigma or EMDbiosciences while the substrates were from Bachem.
Each pNA assay included a 2 h enzyme-inhibitor pre-incubation at room temperature followed by addition of substrate and hydrolysis to ˜15% conversion as measured on a Spectramax Pro microplate reader. The cathepsin B assay was initiated by adding substrate to a 10 min enzyme-inhibitor pre-incubation at room temperature, and the assay plate measured immediately using the Cytofluor Series 4000. Compound concentrations varied from 100 to 0.4 μM depending on their potency.
The final conditions for each assay were as follows: […]
The percentage of inhibition was calculated using the formula: [1−((UVinh−UVblank)/(UVctl−UVblank))]×100 […]

[3] = target: T3, HCV NS3/4A protease complex, BMS strain (UniProt P27958, species not given/STRAIN_BMS); assay: FRET peptide assay to monitor HCV NS3/4A proteolytic activity (BMS strain); type: biochemical, HCV genotype 1a
T3 construct: for H77 and J4L6S; fused on or other part: Three-lysine solubilizing tail at the end of NS4A, for the H77 and J4L6S constructs; Purification on Ni-NTA and the pET21b vector imply a His tag
Source text: as §1
Serum from an HCV-infected patient was obtained from Dr. T. Wright, San Francisco Hospital. An engineered full-length cDNA (compliment deoxyribonucleic acid) template of the HCV genome (BMS strain) was constructed from DNA fragments obtained by reverse transcription-PCR (RT-PCR) of serum RNA (ribonucleic acid) and using primers selected on the basis of homology between other genotype 1a strains. From the determination of the entire genome sequence, a genotype 1a was assigned to the HCV isolate according to the classification of Simmonds et al. (See P Simmonds, K A Rose, S Graham, S W Chan, F McOmish, B C Dow, E A Follett, P L Yap and H Marsden, J. Clin. Microbiol., 31(6), 1493-1503 (1993)). […] The infectious clones, H77 (1a genotype) and J4L6S (1b genotype) were obtained from R. Purcell (NIH) and the sequences are published in Genbank (AAB67036, see Yanagi, M., Purcell, R. H., Emerson, S. U. and Bukh, J. Proc. Natl. Acad. Sci. U.S.A. 94(16), 8738-8743 (1997); AF054247, see Yanagi, M., St Claire, M., Shapiro, M., Emerson, S. U., Purcell, R. H. and Bukh, J, Virology 244 (1), 161-172. (1998)).
The H77 and J4L6S strains were used for production of recombinant NS3/4A protease complexes. DNA encoding the recombinant HCV NS3/4A protease complex (amino acids 1027 to 1711) for these strains were manipulated as described by P. Gallinari et al. (see Gallinari P, Paolini C, Brennan D, Nardi C, Steinkuhler C, De Francesco R. Biochemistry. 38(17):5620-32, (1999)). Briefly, a three-lysine solubilizing tail was added at the 3′-end of the NS4A coding region. The cysteine in the P1 position of the NS4A-NS4B cleavage site (amino acid 1711) was changed to a glycine to avoid the proteolytic cleavage of the lysine tag. Furthermore, a cysteine to serine mutation was introduced by PCR at amino acid position 1454 to prevent the autolytic cleavage in the NS3 helicase domain. The variant DNA fragment was cloned in the pET21b bacterial expression vector (Novagen) and the NS3/4A complex was expressed in Escherichia. coli strain BL21 (DE3) (Invitrogen) following the protocol described by P. Gallinari et al. (see Gallinari P, Brennan D, Nardi C, Brunetti M, Tomei L, Steinkuhler C, De Francesco R., J Virol. 72(8):6758-69 (1998)) with modifications. Briefly, the NS3/4A protease complex expression was induced with 0.5 millimolar (mM) Isopropyl β-D-1-thiogalactopyranoside (IPTG) for 22 hours (h) at 20° C. A typical fermentation (1 Liter (L)) yielded approximately 10 grams (g) of wet cell paste. The cells were resuspended in lysis buffer (10 mL/g) consisting of 25 mM N-(2-Hydroxyethyl)Piperazine-N′-(2-Ethane Sulfonic acid) (HEPES), pH 7.5, 20% glycerol, 500 mM Sodium Chloride (NaCl), 0.5% Triton X-100, 1 microgram/milliliter (“μg/mL”) lysozyme, 5 mM Magnesium Chloride (MgCl2), 1 μg/ml DnaseI, 5 mM β-Mercaptoethanol (βME), Protease inhibitor-Ethylenediamine Tetraacetic acid (EDTA) free (Roche), homogenized and incubated for 20 minutes (min) at 4° C. The homogenate was sonicated and clarified by ultra-centrifugation at 235000 g for 1 h at 4° C. Imidazole was added to the supernatant to a final concentration of 15 mM and the pH adjusted to 8.0. The crude protein extract was loaded on a Nickel-Nitrilotriacetic acid (Ni-NTA) column pre-equilibrated with buffer B (25 mM HEPES, pH 8.0, 20% glycerol, 500 mM NaCl, 0.5% Triton X-100, 15 mM imidazole, 5 mM βME). The sample was loaded at a flow rate of 1 mL/min. The column was washed with 15 column volumes of buffer C (same as buffer B except with 0.2% Triton X-100). The protein was eluted with 5 column volumes of buffer D (same as buffer C except with 200 mM Imidazole). […]

T3 sequence (P27958 1027-1657, change not shown, one chain of several): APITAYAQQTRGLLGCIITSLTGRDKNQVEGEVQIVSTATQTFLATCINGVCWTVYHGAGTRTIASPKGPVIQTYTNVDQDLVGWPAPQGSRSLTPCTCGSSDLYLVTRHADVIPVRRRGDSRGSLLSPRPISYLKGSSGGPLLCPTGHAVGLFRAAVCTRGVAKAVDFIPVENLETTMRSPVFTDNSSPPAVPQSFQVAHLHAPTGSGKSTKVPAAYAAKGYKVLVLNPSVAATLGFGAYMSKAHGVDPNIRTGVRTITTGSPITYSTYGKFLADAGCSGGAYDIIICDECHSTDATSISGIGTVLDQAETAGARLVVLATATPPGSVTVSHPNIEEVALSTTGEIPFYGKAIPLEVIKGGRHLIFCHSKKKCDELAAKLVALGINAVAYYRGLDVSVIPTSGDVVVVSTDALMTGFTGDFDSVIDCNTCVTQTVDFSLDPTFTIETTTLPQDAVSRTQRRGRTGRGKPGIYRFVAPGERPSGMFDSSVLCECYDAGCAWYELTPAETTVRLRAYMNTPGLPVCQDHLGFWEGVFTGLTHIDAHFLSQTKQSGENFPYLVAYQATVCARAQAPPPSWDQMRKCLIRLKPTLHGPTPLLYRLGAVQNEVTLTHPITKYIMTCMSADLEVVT
T2 sequence (P00772 27-266): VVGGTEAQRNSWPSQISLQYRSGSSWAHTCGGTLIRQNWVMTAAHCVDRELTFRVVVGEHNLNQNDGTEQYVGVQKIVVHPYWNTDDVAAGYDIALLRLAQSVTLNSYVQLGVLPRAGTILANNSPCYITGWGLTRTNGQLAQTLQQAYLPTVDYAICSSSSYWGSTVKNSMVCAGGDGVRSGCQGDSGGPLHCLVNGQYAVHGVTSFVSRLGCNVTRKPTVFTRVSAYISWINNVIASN
T1 sequence (P27958 1027-1711 C1454S/C1711G, one chain of several): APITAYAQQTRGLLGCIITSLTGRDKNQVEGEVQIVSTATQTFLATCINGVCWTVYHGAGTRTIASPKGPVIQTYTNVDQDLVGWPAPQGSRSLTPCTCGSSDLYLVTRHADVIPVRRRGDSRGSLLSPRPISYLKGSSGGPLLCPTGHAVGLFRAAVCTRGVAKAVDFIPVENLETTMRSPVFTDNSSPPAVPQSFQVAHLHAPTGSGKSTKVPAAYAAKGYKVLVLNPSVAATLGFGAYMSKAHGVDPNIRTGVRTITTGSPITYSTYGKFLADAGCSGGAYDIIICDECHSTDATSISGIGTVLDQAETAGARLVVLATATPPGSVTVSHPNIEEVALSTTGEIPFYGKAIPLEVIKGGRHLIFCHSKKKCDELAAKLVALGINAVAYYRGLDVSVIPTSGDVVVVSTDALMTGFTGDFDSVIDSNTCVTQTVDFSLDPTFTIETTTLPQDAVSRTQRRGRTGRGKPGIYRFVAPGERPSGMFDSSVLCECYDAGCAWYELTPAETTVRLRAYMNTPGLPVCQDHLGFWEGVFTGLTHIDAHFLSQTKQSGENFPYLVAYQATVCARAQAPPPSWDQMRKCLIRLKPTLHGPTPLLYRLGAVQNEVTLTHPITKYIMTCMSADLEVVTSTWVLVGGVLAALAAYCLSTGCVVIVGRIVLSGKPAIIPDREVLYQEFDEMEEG

COc1c(O[C@@H]2C[C@H]3C(=O)N[C@]4(C(=O)NS(=O)(=O)C5CC5)C[C@H]4/C=C\CCCCC[C@H](NC(=O)OC(C)(C)C)C(=O)N3C2)ccc2c(Cl)nccc12 [Compound 3]
IC50 [1]: 0.6 nM
IC50 [2]: > 100000 nM
IC50 ([3]; BMS strain, read-out: IC50 against the NS3/4A BMS strain in the enzyme assay): 2.8 nM
IC50 ([3]; NS3/4A BMS strain, read-out: IC50 Activity Range): < 100 nM
